pIC50: −log10 of the molar value.
Experiments:
FLT3-D835Y = target: T1, FLT3-D835Y (Homo sapiens, UniProt P36888, D835Y); assay: FLT3-D835Y recombinant enzyme kinase assay (AlphaScreen); format: biochemical; settings: 8 pt, GMean
T1 construct: purchased Invitrogen PV3967
T1 sequence (P36888 27-993 D835Y): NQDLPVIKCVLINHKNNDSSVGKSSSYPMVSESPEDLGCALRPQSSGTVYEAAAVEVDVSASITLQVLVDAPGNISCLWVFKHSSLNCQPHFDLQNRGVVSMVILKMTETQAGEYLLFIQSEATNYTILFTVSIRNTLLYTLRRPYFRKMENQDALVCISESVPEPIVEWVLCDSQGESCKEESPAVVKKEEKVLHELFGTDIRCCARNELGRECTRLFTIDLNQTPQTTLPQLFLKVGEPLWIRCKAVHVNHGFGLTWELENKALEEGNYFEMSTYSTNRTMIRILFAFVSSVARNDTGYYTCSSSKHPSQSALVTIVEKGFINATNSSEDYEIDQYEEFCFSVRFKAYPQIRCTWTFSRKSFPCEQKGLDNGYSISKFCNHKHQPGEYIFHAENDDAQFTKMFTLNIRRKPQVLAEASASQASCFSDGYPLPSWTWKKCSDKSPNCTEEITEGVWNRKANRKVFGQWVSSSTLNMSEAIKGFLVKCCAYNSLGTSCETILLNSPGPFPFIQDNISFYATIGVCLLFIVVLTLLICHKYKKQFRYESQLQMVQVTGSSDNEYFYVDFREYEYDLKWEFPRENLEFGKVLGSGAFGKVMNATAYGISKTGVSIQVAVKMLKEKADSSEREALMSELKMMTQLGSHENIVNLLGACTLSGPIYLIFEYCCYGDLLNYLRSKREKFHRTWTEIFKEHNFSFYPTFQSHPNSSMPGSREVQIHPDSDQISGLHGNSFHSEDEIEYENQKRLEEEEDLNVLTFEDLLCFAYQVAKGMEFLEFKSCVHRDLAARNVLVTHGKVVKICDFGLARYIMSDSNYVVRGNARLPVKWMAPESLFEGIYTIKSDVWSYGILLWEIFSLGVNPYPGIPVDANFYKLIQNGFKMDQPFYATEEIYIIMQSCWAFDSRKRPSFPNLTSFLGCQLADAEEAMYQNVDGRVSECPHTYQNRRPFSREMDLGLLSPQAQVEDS
Outline: (§1)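 Substrate 30 nM biotin-GG(EEEEY)10EE; ATP 10 μM (FLT3-ITD, FLT3-D835Y) or 100 μM (c-KIT). Detection: AlphaScreen PY20 kit, 10 μg/mL beads, RT 20 + 60 min. Readout 580 nm; IC50.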

c-KIT = target: T2, c-KIT (Homo sapiens, UniProt P10721); assay: c-KIT recombinant enzyme kinase assay (AlphaScreen); format: biochemical; settings: 100 ATP, 8 pt
T2 construct: purchased Millipore 14-559K
T2 sequence (P10721 26-976): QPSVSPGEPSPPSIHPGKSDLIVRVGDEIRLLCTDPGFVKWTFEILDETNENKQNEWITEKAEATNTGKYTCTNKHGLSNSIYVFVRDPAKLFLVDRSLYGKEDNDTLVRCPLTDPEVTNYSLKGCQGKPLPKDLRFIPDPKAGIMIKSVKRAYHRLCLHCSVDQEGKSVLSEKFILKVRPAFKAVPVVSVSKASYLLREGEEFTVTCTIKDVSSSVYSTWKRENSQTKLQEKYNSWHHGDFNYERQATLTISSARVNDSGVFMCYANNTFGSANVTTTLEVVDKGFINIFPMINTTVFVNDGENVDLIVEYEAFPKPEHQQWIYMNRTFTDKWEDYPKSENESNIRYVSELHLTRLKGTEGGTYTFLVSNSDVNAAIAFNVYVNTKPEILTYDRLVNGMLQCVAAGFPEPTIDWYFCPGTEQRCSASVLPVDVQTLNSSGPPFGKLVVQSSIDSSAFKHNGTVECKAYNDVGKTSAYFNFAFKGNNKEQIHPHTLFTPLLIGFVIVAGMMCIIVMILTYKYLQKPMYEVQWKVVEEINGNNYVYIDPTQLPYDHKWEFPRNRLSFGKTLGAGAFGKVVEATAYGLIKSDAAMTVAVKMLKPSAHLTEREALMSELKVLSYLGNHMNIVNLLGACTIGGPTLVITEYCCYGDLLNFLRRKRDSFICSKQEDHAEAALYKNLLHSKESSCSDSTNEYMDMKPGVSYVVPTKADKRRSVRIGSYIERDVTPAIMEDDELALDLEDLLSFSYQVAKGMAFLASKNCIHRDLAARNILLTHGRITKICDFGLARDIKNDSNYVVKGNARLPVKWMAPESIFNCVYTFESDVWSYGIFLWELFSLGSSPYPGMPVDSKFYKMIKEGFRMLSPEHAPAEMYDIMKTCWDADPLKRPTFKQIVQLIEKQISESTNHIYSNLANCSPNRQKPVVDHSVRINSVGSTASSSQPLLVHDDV
Outline: as §1

Row | pIC50 (FLT3-D835Y) | pIC50 (c-KIT) | Compound
1 | 5.00 to 10.00 | 5.00 to 10.00 | COc1ncc(NC(=O)Cc2cc(F)c(-c3cnc4[nH]cc(F)c4c3)cc2F)cc1C(F)(F)F [Compound P-0051, 2-[2,5-difluoro-4-(3-fluoro-1H-pyrrolo[2,3-b]pyridin-5-yl)phenyl]-N-[6-methoxy-5-(trifluoromethyl)-3-pyridyl]acetamide]
2 | 5.00 to 10.00 | 5.00 to 10.00 | Cn1cnc(Nc2ncc(-c3ccc(CC(=O)Nc4cncc(C(F)(F)F)c4)c(F)c3)cn2)c1 [Compound P-0052, 2-[2-fluoro-4-[2-[(1-methylimidazol-4-yl)amino]pyrimidin-5-yl]phenyl]-N-[5-(trifluoromethyl)-3-pyridyl]acetamide]
3 | 5.00 to 10.00 | 5.00 to 10.00 | O=C(Cc1ccc(-c2cnc3[nH]cc(F)c3c2)cc1F)Nc1cncc(C(F)(F)F)c1 [Compound P-0053, 2-[2-fluoro-4-(3-fluoro-1H-pyrrolo[2,3-b]pyridin-5-yl)phenyl]-N-[5-(trifluoromethyl)-3-pyridyl]acetamide]
4 | 5.00 to 10.00 | 5.00 to 10.00 | CC(=O)c1c[nH]c2ncc(-c3ccc(CC(=O)Nc4cncc(C(F)(F)F)c4)c(F)c3)cc12 [Compound P-0055, 2-[4-(3-acetyl-1H-pyrrolo[2,3-b]pyridin-5-yl)-2-fluoro-phenyl]-N-[5-(trifluoromethyl)-3-pyridyl]acetamide]
5 | 5.00 to 10.00 | 5.00 to 10.00 | Cc1ncc(NC(=O)Cc2ccc(-c3cnc4c(c3)C3(CC3)C(=O)N4)cc2F)cc1C(F)(F)F [Compound P-0057, 2-[2-fluoro-4-(2-oxospiro[1H-pyrrolo[2,3-b]pyridine-3,1′-cyclopropane]-5-yl)phenyl]-N-[6-methyl-5-(trifluoromethyl)-3-pyridyl]acetamide]
6 | 5.00 to 10.00 | 5.00 to 10.00 | O=C(Cc1ccc(-c2cnc(Nc3cnn4ccccc34)nc2)cc1F)Nc1cncc(C(F)(F)F)c1 [Compound P-0058, 2-[2-fluoro-4-[2-(pyrazolo[1,5-a]pyridin-3-ylamino)pyrimidin-5-yl]phenyl]-N-[5-(trifluoromethyl)-3-pyridyl]acetamide]
7 | 5.00 to 10.00 | 5.00 to 10.00 | Cc1ncc(NC(=O)Cc2ccc(-c3cnc4[nH]cc(Cl)c4n3)cc2F)cc1C(F)(F)F [Compound P-0059, 2-[4-(7-chloro-5H-pyrrolo[2,3-b]pyrazin-2-yl)-2-fluoro-phenyl]-N-[6-methyl-5-(trifluoromethyl)-3-pyridyl]acetamide]
8 | 5.00 to 10.00 | 5.00 to 10.00 | O=C(Cc1ccc(-c2cnc3[nH]cc(Cl)c3n2)cc1F)Nc1cnc(Cl)c(C(F)(F)F)c1 [Compound P-0060, 2-[4-(7-chloro-5H-pyrrolo[2,3-b]pyrazin-2-yl)-2-fluoro-phenyl]-N-[6-chloro-5-(trifluoromethyl)-3-pyridyl]acetamide]
9 | 5.00 to 10.00 | 5.00 to 10.00 | O=C(Cc1ccc(-c2cnc3[nH]cc(Cl)c3n2)cc1F)Nc1cncc(C(F)(F)F)c1 [Compound P-0061, 2-[4-(7-chloro-5H-pyrrolo[2,3-b]pyrazin-2-yl)-2-fluoro-phenyl]-N-[5-(trifluoromethyl)-3-pyridyl]acetamide]
10 | 5.00 to 10.00 | 5.00 to 10.00 | Cc1ncc(NC(=O)Cc2ccc(-c3cnc4[nH]cc(F)c4c3)cc2F)cc1C(F)(F)F [Compound P-0062, 2-[2-fluoro-4-(3-fluoro-1H-pyrrolo[2,3-b]pyridin-5-yl)phenyl]-N-[6-methyl-5-(trifluoromethyl)-3-pyridyl]acetamide]
11 | 5.00 to 10.00 | 5.00 to 10.00 | CC(=O)c1c[nH]c2ncc(-c3ccc(CC(=O)Nc4cnc(C)c(C(F)(F)F)c4)c(F)c3)cc12 [Compound P-0063, 2-[4-(3-acetyl-1H-pyrrolo[2,3-b]pyridin-5-yl)-2-fluoro-phenyl]-N-[6-methyl-5-(trifluoromethyl)-3-pyridyl]acetamide]
12 | 5.00 to 10.00 | 5.00 to 10.00 | Cc1ncc(NC(=O)Cc2ccc(-c3cnc(Nc4cnn5ccccc45)nc3)cc2F)cc1C(F)(F)F [Compound P-0065, 2-(2-fluoro-4-(2-(pyrazolo[1,5-a]pyridin-3-ylamino)pyrimidin-5-yl)phenyl)-N-(6-methyl-5-(trifluoromethyl)pyridin-3-yl)acetamide]
13 | 5.00 to 10.00 | 5.00 to 10.00 | Cc1ncc(NC(=O)Cc2ccc(-c3cnc4[nH]nc(C5CC5)c4c3)cc2F)cc1C(F)(F)F [Compound P-0066, 2-(4-(3-cyclopropyl-1H-pyrazolo[3,4-b]pyridin-5-yl)-2-fluorophenyl)-N-(6-methyl-5-(trifluoromethyl)pyridin-3-yl)acetamide]
14 | 5.00 to 10.00 | 5.00 to 10.00 | Cc1ncc(NC(=O)Cc2ccc(-c3cnc4[nH]c(Cl)cc4c3)cc2F)cc1C(F)(F)F [Compound P-0067, 2-[4-(2-chloro-1H-pyrrolo[2,3-b]pyridin-5-yl)-2-fluoro-phenyl]-N-[6-methyl-5-(trifluoromethyl)-3-pyridyl]acetamide]
15 | 5.00 to 10.00 | 5.00 to 10.00 | CCC(=O)c1c[nH]c2ncc(-c3ccc(CC(=O)Nc4cncc(C(F)(F)F)c4)c(F)c3)cc12 [Compound P-0068, 2-[2-fluoro-4-(3-propanoyl-1H-pyrrolo[2,3-b]pyridin-5-yl)phenyl]-N-[5-(trifluoromethyl)-3-pyridyl]acetamide]
16 | 5.00 to 10.00 | 5.00 to 10.00 | CCC(=O)c1c[nH]c2ncc(-c3ccc(CC(=O)Nc4cnc(C)c(C(F)(F)F)c4)c(F)c3)cc12 [Compound P-0070, 2-[2-fluoro-4-(3-propanoyl-1H-pyrrolo[2,3-b]pyridin-5-yl)phenyl]-N-[6-methyl-5-(trifluoromethyl)-3-pyridyl]acetamide]
17 | 5.00 to 10.00 | 5.00 to 10.00 | O=C(Cc1ccc(-c2cnc(Nc3cnn4ccccc34)nc2)c(F)c1)Nc1cncc(C(F)(F)F)c1 [Compound P-0071, 2-[3-fluoro-4-[2-(pyrazolo[1,5-a]pyridin-3-ylamino)pyrimidin-5-yl]phenyl]-N-[5-(trifluoromethyl)-3-pyridyl]acetamide]
18 | 5.00 to 10.00 | 5.00 to 10.00 | O=C(Cc1ccc(-c2cnc3[nH]nc(C4CC4)c3c2)cc1F)Nc1cncc(C(F)(F)F)c1 [Compound P-0072, 2-[4-(3-cyclopropyl-1H-pyrazolo[3,4-b]pyridin-5-yl)-2-fluoro-phenyl]-N-[5-(trifluoromethyl)-3-pyridyl]acetamide]
19 | 5.00 to 10.00 | 5.00 to 10.00 | O=C(Cc1ccc(-c2cnc3[nH]nc(C4CC4)c3c2)cc1)Nc1cncc(C(F)(F)F)c1 [Compound P-0073, 2-[4-(3-cyclopropyl-1H-pyrazolo[3,4-b]pyridin-5-yl)phenyl]-N-[5-(trifluoromethyl)-3-pyridyl]acetamide]
20 | 5.00 to 10.00 | 5.00 to 10.00 | Cc1ncc(NC(=O)Cc2ccc(-c3cnc(Nc4cnn(C)c4C)nc3)cc2F)cc1C(F)(F)F [Compound P-0076, 2-[4-[2-[(1,5-dimethylpyrazol-4-yl)amino]pyrimidin-5-yl]-2-fluoro-phenyl]-N-[6-methyl-5-(trifluoromethyl)-3-pyridyl]acetamide]
21 | 5.00 to 10.00 | 5.00 to 10.00 | Cc1nn(C)cc1Nc1ncc(-c2ccc(CC(=O)Nc3cnc(C)c(C(F)(F)F)c3)c(F)c2)cn1 [Compound P-0077, 2-[4-[2-[(1,3-dimethylpyrazol-4-yl)amino]pyrimidin-5-yl]-2-fluoro-phenyl]-N-[6-methyl-5-(trifluoromethyl)-3-pyridyl]acetamide]
22 | 5.00 to 10.00 | 5.00 to 10.00 | Cn1cnc(Nc2ncc(-c3cc(F)c(CC(=O)Nc4cncc(C(F)(F)F)c4)cc3F)cn2)c1 [Compound P-0078, 2-(2,5-difluoro-4-(2-((1-methyl-1H-imidazol-4-yl)amino)pyrimidin-5-yl)phenyl)-N-(5-(trifluoromethyl)pyridin-3-yl)acetamide]
23 | 5.00 to 10.00 | 5.00 to 10.00 | Cc1ncc(NC(=O)Cc2ccc(-c3cnc4[nH]cc(Cl)c4n3)cc2)cc1C(F)(F)F [Compound P-0079, 2-(4-(7-chloro-5H-pyrrolo[2,3-b]pyrazin-2-yl)phenyl)-N-(6-methyl-5-(trifluoromethyl)pyridin-3-yl)acetamide]
24 | 5.00 to 10.00 | 5.00 to 10.00 | Cn1cc(Nc2ncc(-c3ccc(CC(=O)Nc4cncc(C5CC5)c4)c(F)c3)cn2)cn1 [Compound P-0081, N-(5-cyclopropyl-3-pyridyl)-2-[2-fluoro-4-[2-[(1-methylpyrazol-4-yl)amino]pyrimidin-5-yl]phenyl]acetamide]

— patent US10160747B2, “Compounds and methods for kinase modulation, and indications therefor” (Plexxikon Inc., priority 2016, dated 2018)
